Patent publication US20200370015A1, “METHOD FOR PRODUCING ERYTHROID PROGENITOR CELLS” (ETABLISSEMENT FRANCAIS DU SANG, priority 2017, published 2020)

Assays:
Assay type in all cases: cell-based, human
[1] = test system: CD34+ from cytapheresis; test: Amplification of erythroid progenitors from CD34+ HSCs derived from cytapheresis (cell count); details: cell count after culture
Protocol: (§1) IMDM (Biochrom), supplemented with transferrin (330 μg/mL), insulin (10 μg/mL), 5% AB serum pool (EFS) and heparin (3 U/mL). From day 0 to day 7, the medium was supplemented with IL-3 (5 ng/mL), SCF (100 ng/mL) and EPO (2 IU/mL). From day 7 until the end of the amplification of erythroblastic progenitors, the medium was supplemented with SCF (100 ng/mL) and EPO (2 IU/mL).
HSCs are obtained after magnetic separation using CD34+ beads according to the protocol provided by Milenyi (see CD34 MicroBead Kit, human, from Miltenyi Biotec).
On day 0 the cells were seeded at a concentration of 10,000 cells/mL, on day 4 the cells were diluted 1/5 in new medium, on day 7 the cells were washed and cultured at 100,000 cells/mL in new medium. On day 11 the cells were diluted to 100,000 cells/mL and seeded in a new medium. On day 14 the cells were reseeded at 300,000 cells/mL in a new medium. On day 18 the cells were diluted to 0.5 million/mL. From day 21 onwards, the cells were systematically returned to 1 million/mL on each maintenance day (i.e., twice per week).
Protocol 1: From day 0 to day 11 the cells are cultured in the basal medium. On day 11 the medium used is supplemented with 253.9 μM DMOG. […]
The cells are diluted to a tenth in trypan blue solution, allowing cell mortality to be assessed if necessary.

[2] = test system: CD34+ HTERT BMI1 LMO2; test: Amplification of erythroid progenitors from engineered cytapheresis HSCs overexpressing HTERT, BMI1 and LMO2 (cell count); details: cell count on day 65
Protocol: as §1
(§2) HSCs are obtained from cytapheresis after magnetic separation using Miltenyi CD34+ beads.
(§3) On day 0 the cells were seeded at a concentration of 100,000 cells/mL, for two successive infections with the HTERT BMI1 lentiviral supernatant and the BCL-XL retroviral supernatant or the HTERT BMI1 lentiviral supernatant and the LMO2 lentiviral supernatant; on day 3 the cells were washed 3 times and reseeded at a concentration of 10,000 cells/mL, on day 4 the cells were diluted to 1/5 in new medium. On day 7 the cells were washed and cultured at 100,000 cells/mL in new medium. On day 11 the cells were diluted to 100,000 cells/mL and seeded in a new medium. On day 14 the cells were reseeded to 300,000 cells/mL in a new medium. On day 18 the cells were diluted to 0.5 million/mL. From day 21 onwards, the cells were systematically reset to 1 million/mL each day of maintenance (i.e., twice per week).
(§4) Protocol 1: From day 0 to day 11 the cells are cultured in the basal medium. […]

[3] = test system: CD34+ HTERT BMI1 BCL-XL; test: Amplification of erythroid progenitors from engineered cytapheresis HSCs overexpressing HTERT, BMI1 and BCL-XL (cell count); details: cell count on day 65
Protocol: as §1, §2, §3, §4

C[C@@H]1C[C@H]2[C@@H]3CCC4=CC(=O)C=C[C@]4(C)[C@@]3(F)[C@@H](O)C[C@]2(C)[C@@]1(O)C(=O)CO [Protocol 3, dexamethasone]
amplification of erythroid progenitors/CD34+ from cytapheresis on day 58 [1]: 2.47 · 10^7
amplification of erythroid progenitors/CD34+ (CD34+ HTERT BMI1 LMO2) [2]: 5.12 · 10^6
amplification of erythroid progenitors/CD34+ (CD34+ HTERT BMI1 BCL-XL) [3]: 5.76 · 10^5
